Source: patent US12116371B2, “Substituted pyridines as irreversible inhibitors of menin-MLL interaction” (BIOMEA FUSION, INC., priority 2018, dated 2024)
Where two headings read alike, the source gives them in different places.

Legend:
Assay in all cases: Long-term proliferation (LTP) assay, CellTiterGlo (Example 103)
HL-60 cells = type: cell-based; conditions: for IC50: Homo sapiens
Method: (§1) The day of the experiment (TO) all the cell line suspensions were counted by Cell Viability Analyser, Vi-CELL and properly diluted with fresh medium to obtain the cell density reported in the Test System paragraph.
(§2) Cells were tested after 4 passages after thawing.
(§3) 200 μL/well and 150 μL/well of cell suspension were added into the 0.4 µL/well and 0.3 μL/well compound plates, respectively. • Cell plate containing 200 μL/well suspension was incubated at 37° C. in a humidified incubator with 5% CO2. • From each well of the 150 µL/well cell assay plate, 100 μL were harvested and transferred into a 96-well Optiplate (Perkin Elmer, Cat. n. 6005290) and cell viability was measured as described in 4.3 paragraphs (TO). • After four days in culture (T4) 150 μL/well of fresh medium were added into a new […] copy compound plate. • From each well of the 200 μL/well cell assay plate: • 100 μL were sampled for the cell viability measurement as described in 4.3 paragraphs (T4). • 50 μL were harvested and added to the 150 μL/well compound plate prepared as described in the first point to dilute 1:4 the cell suspension. • The cell assay plate diluted and containing 200 µL/well suspension were incubated at 37° C. in a humidified incubator with 5% CO2.
(§4) At T7-T11-T14 it was proceeded as described in T4, with the exception that no further cell dilution was carried out at T14.
(§5) Plates containing the samples to be tested were equilibrated at room temperature for approximately 30 min and then 30 μL/well of the Promega CellTiterGlo® reagent were added. Contents will be mixed for 5 min on an orbital shaker to induce cell lysis and then incubated at room temperature for an additional 10 min to stabilize the luminescent signal.
(§6) Luminescence was read by using VictorV (Perkin Elmer) multilabel plate reader using the standard protocol for luminescence in 96 well plate.
(§7) Data were expressed as % of inhibition compared to the 0.2% DMSO negative control, and was calculated as follows: % inhibition=100−[(RLU sample)×100/(RLU average controls*)] • *cells containing 0.2% DMSO
(§8) CRCs were analysed by GraphPad and IC50 values were calculated by non-linear regression using 4 parameter-logistic equation. IC50 (M) values were reported in the final data table.

RS4-11 (MLL-AF4) cells = type: cell-based; conditions: for IC50: Homo sapiens, RS4-11 (MLL-AF4), LTP assay
Method: as §1, §2, §3, §4, §5, §6, §7, §8

MV4-11 (MLL-AF4) cells = type: cell-based, human; conditions: for IC50: Homo sapiens, MV4-11 (MLL-AF4), LTP assay
Method: as §1, §2, §3, §4, §5, §6, §7, §8

MOLM-13 (MLL-AF9) cells = type: cell-based, human; conditions: for IC50: Homo sapiens, MOLM-13 (MLL-AF9), LTP assay
Method: as §1, §2, §3, §4, §5, §6, §7, §8

[1] = 96 h, Day 4, read-out: Day 4 IC50
[2] = 168 h, Day 7, read-out: Day 7 IC50
[3] = 264 h, Day 11, read-out: Day 11 IC50
[4] = 336 h, Day 14, read-out: Day 14 IC50

IC50 (HL-60 cells; 96 h, Day 4, LTP assay, read-out: Day 4 IC50): 430 nM
IC50 (HL-60 cells; 168 h, Day 7, LTP assay, read-out: Day 7 IC50): 260 nM
IC50 (HL-60 cells; 264 h, Day 11, LTP assay, read-out: Day 11 IC50): 290 nM
IC50 (HL-60 cells; 336 h, Day 14, LTP assay, read-out: Day 14 IC50): 270 nM
IC50 (RS4-11 (MLL-AF4) cells; [1]): 500 nM
IC50 (RS4-11 (MLL-AF4) cells; [2]): 470 nM
IC50 (RS4-11 (MLL-AF4) cells; [3]): > 5000 nM
IC50 (MV4-11 (MLL-AF4) cells; [1]): 460 nM
IC50 (MV4-11 (MLL-AF4) cells; [2]): 290 nM
IC50 (MV4-11 (MLL-AF4) cells; [3]): 220 nM
IC50 (MV4-11 (MLL-AF4) cells; [4]): 200 nM
IC50 (MOLM-13 (MLL-AF9) cells; [1]): 260 nM
IC50 (MOLM-13 (MLL-AF9) cells; [2]): 280 nM
IC50 (MOLM-13 (MLL-AF9) cells; [3]): 240 nM
IC50 (MOLM-13 (MLL-AF9) cells; [4]): 230 nM
Structure (SMILES): C=CC(=O)NC1CCCN(Cc2ccnc(C(=O)Nc3ccc(-c4cc5c(N6CCOCC6)ncnc5[nH]4)cc3)c2)C1 (stereo not shown) [Compound 10]
effect on cell viability at T4 (HL-60 cells; T4, increasing concentrations): fully inhibited
effect on cell viability at T4 (RS4-11 (MLL-AF4) cells; RS4;11, T4, increasing concentrations): fully inhibited
effect on cell viability at T4 (MV4-11 (MLL-AF4) cells; MV4-11, T4, increasing concentrations): fully inhibited
effect on cell viability at T4 (MOLM-13 (MLL-AF9) cells; MOLM-13, T4, increasing concentrations): fully inhibited
